Test results as given in patent US8658666B2, “Substituted imidazoquinolines and imidazonaphthyridines” (3M Innovative Properties Company, priority 2005, dated 2014).
Counter-ions that a name gives are not always drawn.

Structure (SMILES)	melting point
CCOCc1nc2c(N)nc3cc(/C=C/Sc4ccccc4)ccc3c2n1CCCOC(C)C (as salt: hydrobromid) [Example 1, 2-Ethoxymethyl-1-(3-isopropoxypropyl)-7-[(E)-2-(phenylthio)ethenyl]-1H-imidazo[4,5-c]quinolin-4-amine]	220 to 221 °C
CCOCc1nc2c(N)nc3cc(/C=C/S(=O)(=O)c4ccccc4)ccc3c2n1CCCOC(C)C [Example 2, 2-Ethoxymethyl-1-(3-isopropoxypropyl)-7-[(E)-2-(phenylsulfonyl)ethenyl]-1H-imidazo[4,5-c]quinolin-4-amine]	188.5 to 190 °C
CCOCc1nc2c(N)nc3cc(NC(=O)C(C)C)ccc3c2n1CCCOC(C)C [Example 3, N-[4-Amino-2-ethoxymethyl-1-(3-isopropoxypropyl)-1H-imidazo[4,5-c]quinolin-7-yl]-2-methylpropanamide]	214 to 215 °C
CCOCc1nc2c(N)nc3cc(NS(=O)(=O)CC)ccc3c2n1CC(C)(C)O [Example 4, N-[4-Amino-2-ethoxymethyl-1-(2-hydroxy-2-methylpropyl)-1H-imidazo[4,5-c]quinolin-7-yl]ethanesulfonamide]	124 to 127 °C
CCOCc1nc2c(N)nc3cc(CCCCNC(C)=O)ccc3c2n1CCCOC(C)C [Example 5, N-{4-[4-Amino-2-ethoxymethyl-1-(3-isopropxypropyl)-1H-imidazo[4,5-c]quinolin-7-yl]butyl}acetamide]	122 to 124 °C
CCCNC(=O)NCCCCc1ccc2c(c1)nc(N)c1nc(COCC)n(CCCOC(C)C)c12 [Example 6, N-{4-[4-Amino-2-ethoxymethyl-1-(3-isopropxypropyl)-1H-imidazo[4,5-c]quinolin-7-yl]butyl}-N′-propylurea]	134.5 to 135.5 °C
CCOCc1nc2c(N)nc3cc(S(C)(=O)=O)ccc3c2n1CCCOC [Example 7, 2-Ethoxymethyl-1-(3-methoxypropyl)-7-methylsulfonyl-1H-imidazo[4,5-c]quinolin-4-amine]	166.5 to 167.5 °C
CCCCc1nc2c(N)nc3cc(/C=C/C(=O)OC)ccc3c2n1CC(C)C [Example 8, Methyl(2E)-3-[4-amino-2-butyl-1-(2-methylpropyl)-1H-imidazo[4,5-c]quinolin-7-yl]prop-2-enoate]	193 to 194 °C
CCOCc1nc2c(N)nc3cc(/C=C/C(=O)OC)ccc3c2n1CCCCN1CCCS1(=O)=O [Example 9, Methyl(2E)-3-[4-amino-1-[4-(1,1-dioxidoisothiazolidin-2-yl)butyl]-2-(ethoxymethyl)-1H-imidazo[4,5-c]quinolin-7-yl]prop-2-enoate]	162 to 163 °C
CC(C)Cn1cnc2c(N)nc3ccc(CCCN4CCCC4=O)cc3c21 [Example 10, 1-{3-[4-Amino-1-(2-methylpropyl)-1H-imidazo[4,5-c]quinolin-8-yl]propyl}pyrrolidin-2-one]	174 to 175 °C
CCOCc1nc2c(N)nc3cc(CCC(=O)N4CCOCC4)ccc3c2n1CC(C)(C)O [Example 14, 1-[4-Amino-2-(ethoxymethyl)-7-(3-morpholin-4-yl-3-oxopropyl)-1H-imidazo[4,5-c]quinolin-1-yl]-2-methylpropan-2-ol]	118 to 119 °C
COC(=O)/C=C/c1ccc2c(c1)nc(N)c1ncn(CC(C)(C)O)c12 [Example 15, Methyl(2E)-3-[4-amino-1-(2-hydroxy-2-methylpropyl)-1H-imidazo[4,5-c]quinolin-7-yl]prop-2-enoate]	> 250 °C
COC(=O)CCc1ccc2c(c1)nc(N)c1ncn(CC(C)(C)O)c12 [Example 16, Methyl 3-[4-amino-1-(2-hydroxy-2-methylpropyl)-1H-imidazo[4,5-c]quinolin-7-yl]propanoate]	201 to 205 °C
CCc1nc2c(N)nc3cc(/C=C/C(=O)OC)ccc3c2n1CC(C)(C)O [Example 17, Methyl(2E)-3-[4-amino-2-ethyl-1-(2-hydroxy-2-methylpropyl)-1H-imidazo[4,5-c]quinolin-7-yl]prop-2-enoate]	238 to 240 °C
CC(C)Cn1cnc2c(N)nc3ccc(CCO)cc3c21 [Example 96, 2-(4-Amino-1-isobutyl-1H-imidazo[4,5-c]quinolin-8-yl)ethanol]	214 to 216 °C
CC(C)(O)Cn1cnc2c(N)nc3cc(CCC(=O)N4CCOCC4)ccc3c21 [Example 97, 3-[4-Amino-1-(2-hydroxy-2-methylpropyl)-1H-imidazo[4,5-c]quinolin-7-yl]-1-(morpholin-4-yl)propan-1-one]	217 to 218 °C
CCc1nc2c(N)nc3cc(CCC(=O)N4CCOCC4)ccc3c2n1CC(C)(C)O [Example 98, 3-[4-Amino-2-ethyl-1-(2-hydroxy-2-methylpropyl)-1H-imidazo[4,5-c]quinolin-7-yl]-1-(morpholin-4-yl)propan-1-one]	237 to 239 °C
CC(C)(O)Cn1cnc2c(N)nc3cc(CCS(C)(=O)=O)ccc3c21 [Example 99]	269 to 271 °C

Structure (SMILES)	melting point
CCc1nc2c(N)nc3cc(CCC(=O)N(C)C)ccc3c2n1CC(C)(C)O [Example 100, 3-[4-Amino-2-ethyl-1-(2-hydroxy-2-methylpropyl)-1H-imidazo[4,5-c]quinolin-7-yl]-N,N-dimethylpropanamide]	234 to 237 °C
COCCc1nc2c(N)nc3ccc(CCC(=O)N4CCOCC4)cc3c2n1CCCN1CCCC1=O [Example 101, 1-{3-[4-Amino-2-(2-methoxyethyl)-8-(3-morpholin-4-yl-3-oxo-propyl)-1H-imidazo[4,5-c]quinolin-1-yl]propyl}pyrrolidin-2-one]	168 to 170 °C
COCCc1nc2c(N)nc3ccc(CCC(=O)N(C)C)cc3c2n1CCCN1CCCC1=O [Example 102, 3-{4-Amino-2-(2-methoxyethyl)-1-[3-(2-oxo-pyrrolidin-1-yl)propyl]-1H-imidazo[4,5-c]quinolin-8-yl}-N,N-dimethylpropanamide]	184 to 186 °C
CCc1nc2c(N)nc3cc(CCC(=O)N4CCSC4)ccc3c2n1CC(C)(C)O [Example 103, 1-{4-Amino-2-ethyl-7-[3-oxo-3-(1,3-thiazolidin-3-yl)propyl]-1H-imidazo[4,5-c]quinolin-1-yl}-2-methylpropan-2-ol]	210 to 212 °C
COCc1nc2c(N)nc3cc(CCS(C)(=O)=O)ccc3c2n1CC(C)(C)O [Example 104, 1-{4-Amino-2-(methoxymethyl)-7-[2-(methylsulfonyl)ethyl]-1H-imidazo[4,5-c]quinolin-1-yl}-2-methylpropan-2-ol]	210 to 212 °C
CC(C)(O)Cn1c(CO)nc2c(N)nc3cc(CCS(C)(=O)=O)ccc3c21 [Example 105, 1-{4-Amino-2-(hydroxymethyl)-7-[2-(methylsulfonyl)ethyl]-1H-imidazo[4,5-c]quinolin-1-yl}-2-methylpropan-2-ol]	221 to 223 °C
COCc1nc2c(N)nc3cc(CCC(=O)N4CCOCC4)ccc3c2n1CC(C)(C)O [Example 106, 1-[4-Amino-2-(methoxymethyl)-7-(3-morpholin-4-yl-3-oxopropyl)-IH-imidazo[4,5-c]quinolin-1-yl]-2-methylpropan-2-ol]	215 to 217 °C
COCc1nc2c(N)nc3cc(CCC(=O)N4CCS(=O)(=O)CC4)ccc3c2n1CC(C)(C)O [Example 107, 1-[4-Amino-7-[3-(1,1-dioxidothiomorpholin-4-yl)-3-oxopropyl]-2-(methoxymethyl)-1H-imidazo[4,5-c]quinolin-1-yl]-2-methylpropan-2-ol]	190 to 192 °C
COCc1nc2c(N)nc3cc(CCC(=O)N(C)C)ccc3c2n1CC(C)(C)O [Example 108, 3-[4-Amino-1-(2-hydroxy-2-methylpropyl)-2-(methoxymethyl)-1H-imidazo[4,5-c]quinolin-7-yl]-N,N-dimethylpropanamide]	142 to 145 °C
COCc1nc2c(N)nc3cc(CCCNS(C)(=O)=O)ccc3c2n1CC(C)(C)O [Example 109, N-{3-[4-Amino-1-(2-hydroxy-2-methylpropyl)-2-(methoxymethyl)-1H-imidazo[4,5-c]quinolin-7-yl]propyl}methanesulfonamide]	205 to 207 °C
COCc1nc2c(N)nc3cc(CCC#N)ccc3c2n1CC(C)(C)O [Example 110, 3-[4-Amino-1-(2-hydroxy-2-methylpropyl)-2-(methoxymethyl)-1H-imidazo[4,5-c]quinolin-7-yl]propanenitrile]	191 to 193 °C
CN(C)C(=O)CCc1ccc2c(c1)nc(N)c1nc(CO)n(CC(C)(C)O)c12 [Example 111, 3-[4-Amino-2-(hydroxymethyl)-1-(2-hydroxy-2-methylpropyl)-1H-imidazo[4,5-c]quinolin-7-yl]-N,N-dimethylpropanamide]	228 to 230 °C
CC(C)(O)Cn1c(CO)nc2c(N)nc3cc(CCC(=O)N4CCOCC4)ccc3c21 [Example 112, 1-[4-Amino-2-(hydroxymethyl)-7-(3-morpholin-4-yl-3-oxopropyl)-1H-imidazo[4,5-c]quinolin-1-yl]-2-methylpropan-2-ol]	223 to 225 °C
COCc1nc2c(N)nc3cc(CCC(N)=O)ccc3c2n1CC(C)(C)O [Example 113, 3-[4-Amino-1-(2-hydroxy-2-methylpropyl)-2-(methoxymethyl)-1H-imidazo[4,5-c]quinolin-7-yl]propanamide]	228 to 230 °C
CC(C)(O)Cn1c(CO)nc2c(N)nc3cc(CCCNS(C)(=O)=O)ccc3c21 [Example 116, N-{3-[4-Amino-2-(hydroxymethyl)-1-(2-hydroxy-2-methylpropyl)-1H-imidazo[4,5-c]quinolin-7-yl]propyl}methanesulfonamide]	202 to 205 °C
CCOCc1nc2c(N)nc3ccc(NC(=O)C(C)C)cc3c2n1CC(C)(C)O [Example 117, N-[4-Amino-2-(ethoxymethyl)-1-(2-hydroxy-2-methylpropyl)-1H-imidazo[4,5-c]quinolin-8-yl]-2-methylpropanamide]	259 to 261 °C
CCc1nc2c(N)nc3cc(CCNS(C)(=O)=O)ccc3c2n1CC(C)(C)O [Example 118, N-{2-[4-Amino-2-ethyl-1-(2-hydroxy-2-methylpropyl)-1H-imidazo[4,5-c]quinolin-7-yl]ethyl}methanesulfonamide]	149 to 152 °C
CCc1nc2c(N)nc3cc(CCS(C)(=O)=O)ccc3c2n1CC1CCOCC1 [Example 120]	246.5 to 249 °C
